Experimental data taken from patent US8367873B2, “Phenyl-substituted bicyclooctane-1,3-dione derivatives” (Bayer Cropscience AG, priority 2008, dated 2013).

Key:
Assay type in all cases: in vivo
Alopecurus myosuroides = experiment: Herbicidal post-emergence action; settings: post-emergence method; for herbicidal effect against ALOMY (Alopecurus myosuroides): 80 g/ha
Procedure: (§1) Seeds of monocotylidonous and dicotylidonous weed and crop plants are placed in sandy loam in wood fibre pots, covered with soil and cultivated in a greenhouse under good growth conditions. Two to three weeks after sowing, the test plants are treated at the one-leaf stage. The test compounds, formulated as wettable powders (WP), are then with a water application rate of 600 l/ha (converted), with 0.2% of wetting agent added, sprayed onto the green parts of the plants in different amounts. After the test plants have been kept in the greenhouse under optimum growth conditions for about three weeks, the effect of the preparations is assessed visually in comparison to untreated controls (herbicidal effect in percent: 100% effect=the plants have died, 0% effect=like control plants).

Echinocloa crus-galli = experiment: Herbicidal post-emergence action; settings: post-emergence method; for herbicidal effect against ECHCG (Echinochloa crus-galli): 80 g/ha
Procedure: as §1

Lolium multiflorum = experiment: Herbicidal post-emergence action; settings: post-emergence method; for herbicidal effect against LOLMU (Lolium multiflorum): 80 g/ha
Procedure: as §1

Setaria viridis = experiment: Herbicidal post-emergence action; settings: post-emergence method; for herbicidal effect against SETVI (Setaria viridis): 80 g/ha
Procedure: as §1

[1] = tested on: monocotylidonous and dicotylidonous weed and crop plants; experiment: Herbicidal post-emergence action (other test plants); settings: post-emergence method; for herbicidal effect against AVEFA (Avena fatua): 80 g/ha
Procedure: as §1

Row | Structure (SMILES) | herbicidal effect against ALOMY (Alopecurus myosuroides) (Alopecurus myosuroides) [%] | herbicidal effect against ECHCG (Echinochloa crus-galli) (Echinocloa crus-galli) [%] | herbicidal effect against LOLMU (Lolium multiflorum) (Lolium multiflorum) [%] | herbicidal effect against SETVI (Setaria viridis) (Setaria viridis) [%] | herbicidal effect against AVEFA (Avena fatua) [1] [%] | pest or weed control at 80 g/ha (Alopecurus myosuroides; Alopecurus myosuroides, 504 h, read-out: herbicidal effect against ALOMY (Alopecurus myosuroides)) [%] | pest or weed control at 80 g/ha (Echinocloa crus-galli; Echinochloa crus-galli, 504 h, read-out: herbicidal effect against ECHCG (Echinochloa crus-galli)) [%] | pest or weed control at 80 g/ha (Lolium multiflorum; Lolium multiflorum, 504 h, read-out: herbicidal effect against LOLMU (Lolium multiflorum)) [%] | pest or weed control at 80 g/ha (Setaria viridis; Setaria viridis, 504 h, read-out: herbicidal effect against SETVI (Setaria viridis)) [%] | pest or weed control at 80 g/ha ([1]; 504 h, Avena fatua, read-out: herbicidal effect against AVEFA (Avena fatua)) [%]
1 | CCOC(=O)OC1=C(c2c(C)cc(C)cc2C)C(=O)C2CC(=O)CC12 (racemic) [I-c-58] | 0 | 100 | 0 | 100 | 0 | – | – | – | – | –
2 | Cc1cc(C)c(C2=C(O)[C@H]3CC4(C[C@H]3C2=O)OCCCO4)c(C)c1 (relative stereo) [I-a-37] | 60 | 100 | 100 | 60 | 90 | – | – | – | – | –
3 | CCc1cc(C)cc(C)c1C1=C(O)C2CC(=O)CC2C1=O (stereo not shown) [I-a-56] | 0 | 100 | 0 | 100 | 0 | – | – | – | – | –
4 | CCc1cc(C)cc(C)c1C1=C(O)C2CC3(CC2C1=O)OCC=CCO3 (stereo not shown) [I-a-60] | 100 | 100 | 100 | 100 | 90 | – | – | – | – | –
5 | CCc1cc(C)cc(CC)c1C1=C(O)C2CC3(CC2C1=O)OCCCS3 (mixture of isomers) [I-a-20] | 90 | 100 | 100 | 90 | 80 | – | – | – | – | –
6 | CCc1cc(C)cc(CC)c1C1=C(OC(=O)OC)C2CC(=O)CC2C1=O (stereo not shown) [I-c-42] | 0 | 100 | 0 | 100 | 0 | – | – | – | – | –
7 | C=C1CC2C(=O)C(c3c(C)cc(C)cc3C)=C([O-])C2C1.[Na+] (stereo not shown) [I-f-23] | 0 | 90 | 60 | 80 | 0 | – | – | – | – | –
8 | COCC(=O)OC1=C(c2c(C)cc(C)cc2C)C(=O)C2CC(=O)CC12 (stereo not shown) [I-b-53] | 20 | 100 | 0 | 90 | 0 | – | – | – | – | –
9 | COC(=O)OC1=C(c2c(C)cc(C)cc2C)C(=O)C2CC(=O)CC12 (racemic) [I-c-57] | 90 | 100 | 0 | 90 | 0 | – | – | – | – | –
10 | CCc1cc(C)cc(CC)c1C1C(=O)[C@H]2C/C(=N\OC)C[C@H]2C1=O (stereo partly shown) [I-a-18] | – | – | – | – | – | 90 | 100 | 100 | 90 | 60
11 | C#CCON=C1CC2C(=O)C(c3c(C)cc(C)cc3C)=C(OC(=O)C(C)(C)C)C2C1 (stereo not shown) [I-b-59] | 20 | 80 | 80 | 0 | 0 | – | – | – | – | –
12 | C#CCON=C1C[C@@H]2C(O)=C(c3c(CC)cc(C)cc3CC)C(=O)[C@@H]2C1 (relative stereo) [I-a-33] | 100 | 100 | 100 | 90 | 0 | – | – | – | – | –
13 | C#CCON=C1CC2C(=O)C(c3c(C)cc(C)cc3C)=C(O)C2C1 (stereo not shown) [I-a-43] | 20 | 90 | 40 | 40 | 0 | – | – | – | – | –
14 | Cc1cc(C)c(C2=C(OC(=O)C(C)(C)C)C3CC(=O)CC3C2=O)c(C)c1 (stereo not shown) [I-b-60] | 0 | 100 | 0 | 80 | 0 | – | – | – | – | –
15 | C#CCON=C1CC2C(=O)C(c3c(C)cc(C)cc3C)=C(OC(=O)C(C)C)C2C1 (stereo not shown) [I-b-58] | 0 | 80 | 60 | 20 | 0 | – | – | – | – | –
16 | CCc1cc(C)cc(CC)c1C1=C(O)[C@H]2CC3(C[C@H]2C1=O)SCCS3 (relative stereo) [I-a-16] | 30 | 90 | 80 | 80 | 30 | – | – | – | – | –
17 | CCOC(=O)OC1=C(c2c(CC)cc(C)cc2CC)C(=O)C2CC(=NOC(C)(C)C)CC12 (stereo not shown) [I-c-38] | 70 | 80 | 90 | 30 | 0 | – | – | – | – | –
18 | CCc1cc(C)cc(CC)c1C1=C(OC(=O)OC)C2CC3(CC2C1=O)SCCCS3 (stereo not shown) [I-c-20] | 90 | 100 | 100 | 100 | 90 | – | – | – | – | –
19 | CCOC(=O)OC1=C(c2c(CC)cc(C)cc2CC)C(=O)[C@@H]2CC3(C[C@H]12)SCCS3 (relative stereo) [I-c-15] | 90 | 90 | 90 | 90 | 60 | – | – | – | – | –
20 | Cc1cc(C)c(C2=C([O-])C3CC4(CC3C2=O)OC(C)CC(C)O4)c(C)c1.[Na+] (stereo not shown) [I-f-3] | 90 | 90 | 90 | 80 | 0 | – | – | – | – | –
21 | C#CCON=C1CC2C(=O)C(c3c(C)cc(C)cc3C)=C(OC(=O)OCC)C2C1 (racemic) [I-c-60] | 20 | 100 | 80 | 0 | 0 | – | – | – | – | –
22 | COc1cc(C)cc(C)c1C1=C(O)C2CC3(CC2C1=O)OCCCO3 (stereo not shown) [I-a-47] | 20 | 100 | 100 | 100 | 80 | – | – | – | – | –
23 | Cc1cc(C)c(C2=C(OC(=O)C(C)C)C3CC(=O)CC3C2=O)c(C)c1 (stereo not shown) [I-b-54] | 20 | 100 | 0 | 100 | 0 | – | – | – | – | –
